Measured values: patent publication US8497256B2, “Formulations and uses of 2-hydroxy-5-phenylazobenzoic acid derivatives for the treatment of males” (Salix Pharmaceuticals, Ltd, priority 2010, dated 2013)
Counter-ions that a name gives are not always drawn. Like-named read-outs stand apart in the source and are kept apart here. Marks after values point to notes of the source that are not given here. Each block holds one compound with its values, some of them ahead of it.

Tests used:
Ames test = assay type: cell-based; conditions: in vitro
Text: (§1) For a 50 kg person of average height this dose represents 2.5 times the recommended human dose on a body surface area basis. Balsalazide disodium was not genotoxic in the following in vitro or in vivo tests: Ames test, human lymphocyte chromosomal aberration test, and mouse lymphoma cell (L5178Y/TK+/−) forward mutation test, or mouse micronucleus test. However, it was genotoxic in the in vitro Chinese hamster lung cell (CH V79/HGPRT) forward mutation test.
(§2) The compound 4-aminobenzoyl-β-alanine, a metabolite of balsalazide disodium, was not genotoxic in the Ames test and the mouse lymphoma cell (L5178Y/TK+/−) forward mutation test but was positive in the human lymphocyte chromosomal aberration test. N-acetyl-4-aminobenzoyl-β-alanine, a conjugated metabolite of balsalazide disodium, was not genotoxic in Ames test, the mouse lymphoma cell (L5178Y/TK+/−) forward mutation test, or the human lymphocyte chromosomal aberration test.

human lymphocyte = assay: Human lymphocyte chromosomal aberration test; assay type: cell-based; conditions: in vitro
Text: as §1, §2

[1] = tested on: mouse lymphoma cell (L5178Y/TK+/−); assay: Mouse lymphoma cell forward mutation test; assay type: cell-based; conditions: in vitro
Text: as §1, §2

CYP1A2 [2] = molecular target: T1, CYP1A2 (Homo sapiens, UniProt P05177); conditions: microsomes
T1 sequence (P05177 1-516): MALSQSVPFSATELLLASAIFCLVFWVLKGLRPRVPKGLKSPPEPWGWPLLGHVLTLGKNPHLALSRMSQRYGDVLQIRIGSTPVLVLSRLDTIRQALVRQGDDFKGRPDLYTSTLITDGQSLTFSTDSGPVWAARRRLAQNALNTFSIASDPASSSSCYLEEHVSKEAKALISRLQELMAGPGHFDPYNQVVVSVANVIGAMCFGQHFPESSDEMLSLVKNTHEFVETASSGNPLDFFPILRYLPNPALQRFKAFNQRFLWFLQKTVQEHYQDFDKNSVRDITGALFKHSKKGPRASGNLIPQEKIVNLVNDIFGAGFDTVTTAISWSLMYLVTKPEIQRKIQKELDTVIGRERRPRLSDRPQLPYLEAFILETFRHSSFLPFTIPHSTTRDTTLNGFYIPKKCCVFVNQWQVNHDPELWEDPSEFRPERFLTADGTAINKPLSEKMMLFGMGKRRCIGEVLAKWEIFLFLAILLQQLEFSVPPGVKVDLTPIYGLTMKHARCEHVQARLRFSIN

CYP2C9 [3] = molecular target: T2, CYP2C9 (Homo sapiens, UniProt P11712); conditions: microsomes
CYP2C19 [4] = molecular target: T3, CYP2C19 (Homo sapiens, UniProt P33261); conditions: microsomes
CYP2D6 [5] = molecular target: T4, CYP2D6 (Homo sapiens, UniProt P10635); conditions: microsomes
CYP3A4/5 [6] = conditions: microsomes
[7] = cited from earlier work
clinical [8] = assay: clinical
Text: Before further description and in order that the invention may be more readily understood, certain terms are first defined and collected here for convenience. Common pharmacologic term used herein refer are as follows: Tmax (time to maximum concentration); Cmax (observed maximum concentration); kel (slope of terminal linear portion of concentration/time curve); T1/2 (half-life of balsalazide calculated as: 0.693/Kel); AUC(last) (area under the curve to last quantifiable concentration as measured by the trapezoidal rule); and AUC(inf) (the AUC value extrapolated to infinity calculated as: AUC(inf)=AUC(last)+C(t)last/Kel where C(t) last is the last measurable concentration).

[9] = human, in vivo, po, 3.3 g
human plasma proteins [10] = tested on: human plasma proteins
clinical [11] = conditions: human, in vivo, po, 3.3 g, Median Tmax
[12] = Food effect on pharmacokinetics, single 3.3 g dose of GIAZO; conditions: single dose 3.3 g GIAZO; for Change (reduction) of AUC0-∞ under fed conditions / Reduction of mean Cmax under fed conditions: high-fat meal vs fasted; for Tmax: human, plasma, po, 3.3 g, Median Tmax
human plasma proteins [13] = assay: Plasma protein binding
CYP1A2 [14] = molecular target: T1, CYP1A2; assay: CYP inhibition in human liver microsomes
CYP2C9 [15] = molecular target: T2, CYP2C9; assay: CYP inhibition in human liver microsomes
CYP2C19 [16] = molecular target: T3, CYP2C19; assay: CYP inhibition in human liver microsomes
CYP2D6 [17] = molecular target: T4, CYP2D6; assay: CYP inhibition in human liver microsomes
CYP3A4/5 [18] = assay: CYP inhibition in human liver microsomes
[19] = Solubility of balsalazide disodium; assay type: physicochemical
Text: It is a stable, odorless, orange to yellow, microcrystalline powder. […] Balsalazide disodium has the chemical name (E)-5-[[-4-[[(2-carboxyethyl) amino]carbonyl]phenyl]azo]-2-hydroxybenzoic acid, disodium salt, dihydrate (Molecular Weight: 437.32; Molecular Formula: C17H13N3O6Na2.2H2O).
Each GIAZO tablet contains 1.1 g of balsalazide disodium, film-coated for oral delivery. Balsalazide disodium is insoluble in acid, but soluble at a pH of at least 4.5. […] The sodium content of each tablet is approximately 126 mg.
Mesalamine is 5-aminosaliacylic acid and appears to act topically.

[20] = Reproduction / fertility studies in rats; assay type: in vivo, rat; conditions: oral doses up to 2 g/kg/day
Text: (§3) There are, however, no adequate and well-controlled studies in pregnant women. Because animal reproduction studies are not always predictive of human response, this drug should be used during pregnancy only if clearly needed.
as §2

[21] = Reproduction studies in rabbits; assay type: in vivo, rabbit; conditions: oral doses up to 2 g/kg/day
Text: as §3

[22] = 24-month rat carcinogenicity study; assay type: in vivo, rat (Sprague Dawley); conditions: 24 months, oral (dietary), doses up to 2 g/kg/day
Text: as §1

Mouse micronucleus test = conditions: in vivo
Text: as §1

[23] = tested on: Chinese hamster lung cell (CH V79/HGPRT); assay type: cell-based
Text: as §1

[24] = human, in vivo, Terminal half-life
[25] = repeated dose (Q12) 3.3 g as GIAZO, N = 18
[26] = single dose 3.3 g as GIAZO, N = 18

T2 sequence (P11712 whole entry): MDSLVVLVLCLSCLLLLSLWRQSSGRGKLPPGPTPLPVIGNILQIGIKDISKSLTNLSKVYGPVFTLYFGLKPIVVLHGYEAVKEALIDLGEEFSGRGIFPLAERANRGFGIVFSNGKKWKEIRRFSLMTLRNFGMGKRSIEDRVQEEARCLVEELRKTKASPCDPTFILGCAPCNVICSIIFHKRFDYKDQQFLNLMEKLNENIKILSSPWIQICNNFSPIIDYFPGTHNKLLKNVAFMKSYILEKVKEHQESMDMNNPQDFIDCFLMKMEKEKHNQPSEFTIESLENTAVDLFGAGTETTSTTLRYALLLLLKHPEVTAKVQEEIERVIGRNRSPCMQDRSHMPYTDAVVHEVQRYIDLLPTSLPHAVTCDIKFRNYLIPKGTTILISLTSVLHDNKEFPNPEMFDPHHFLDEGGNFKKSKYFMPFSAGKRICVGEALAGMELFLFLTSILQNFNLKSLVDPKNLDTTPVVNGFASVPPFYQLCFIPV
T3 sequence (P33261 whole entry): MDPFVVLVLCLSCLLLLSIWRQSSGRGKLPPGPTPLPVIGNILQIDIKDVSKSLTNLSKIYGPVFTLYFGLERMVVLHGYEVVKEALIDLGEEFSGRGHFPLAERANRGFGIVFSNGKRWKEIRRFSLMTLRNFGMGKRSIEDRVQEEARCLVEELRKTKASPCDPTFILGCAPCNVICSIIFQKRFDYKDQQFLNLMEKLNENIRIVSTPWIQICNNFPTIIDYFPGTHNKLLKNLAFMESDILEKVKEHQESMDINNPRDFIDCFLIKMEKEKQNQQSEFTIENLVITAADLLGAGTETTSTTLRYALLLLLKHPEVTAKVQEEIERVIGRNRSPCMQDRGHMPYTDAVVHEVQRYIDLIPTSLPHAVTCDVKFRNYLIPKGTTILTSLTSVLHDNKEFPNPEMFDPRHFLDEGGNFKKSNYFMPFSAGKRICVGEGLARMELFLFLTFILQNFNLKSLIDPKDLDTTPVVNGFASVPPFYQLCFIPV
T4 sequence (P10635 whole entry): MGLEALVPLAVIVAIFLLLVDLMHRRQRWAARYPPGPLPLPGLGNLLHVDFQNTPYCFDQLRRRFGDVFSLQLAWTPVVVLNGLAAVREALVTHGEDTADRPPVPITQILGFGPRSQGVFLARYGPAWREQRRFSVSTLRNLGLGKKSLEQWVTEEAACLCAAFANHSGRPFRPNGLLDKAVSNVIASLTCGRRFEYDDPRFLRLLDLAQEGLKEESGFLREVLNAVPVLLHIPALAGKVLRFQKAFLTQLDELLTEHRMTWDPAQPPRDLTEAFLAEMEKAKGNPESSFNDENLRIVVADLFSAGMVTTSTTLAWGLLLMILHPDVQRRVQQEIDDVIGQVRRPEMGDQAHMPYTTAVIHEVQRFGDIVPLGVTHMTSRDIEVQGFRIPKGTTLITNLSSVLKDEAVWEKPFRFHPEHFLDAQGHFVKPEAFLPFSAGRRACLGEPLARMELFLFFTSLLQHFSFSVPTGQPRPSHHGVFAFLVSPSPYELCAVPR

Structure (SMILES): Nc1ccc(O)c(C(=O)O)c1 [5-ASA, 5-aminosalicylic acid]
AUC(0-inf) (clinical [8]; human, in vivo): 8500 ng·h/mL
AUCtau, mean (clinical [8]; human, in vivo): 2200 ng·h/mL
Cmax, mean (clinical [8]; human, in vivo): 500 ng/mL
Tmax (clinical [8]; human, in vivo): 12 h
half-life (clinical [8]; human, in vivo, T1/2, mean): 9.5 h
half-life (clinical [8]; [24]): 9.5 h
Inhibition of CYP1A2 (CYP1A2 [2]): not shown to inhibit
Inhibition of CYP2C9 (CYP2C9 [3]): not shown to inhibit
Inhibition of CYP2C19 (CYP2C19 [4]): not shown to inhibit
Inhibition of CYP2D6 (CYP2D6 [5]): not shown to inhibit
Median Tmax [9]: 24 h
Binding to plasma proteins (human plasma proteins [10]): 43%
Tmax (clinical [11]): 12 h
Change (reduction) of AUC0-∞ under fed conditions [12]: 46%
Reduction of mean Cmax under fed conditions [12]: 65%

Structure (SMILES): CC(=O)Nc1ccc(O)c(C(=O)O)c1 [N-Ac-5-ASA, N-acetyl-5-aminosalyicylic acid]
Terminal half-life (clinical [8]): 10.5 h
T1/2, mean (clinical [8]; repeated dose (Q12) 3.3 g as GIAZO): 7.2 h
AUCtau, mean (clinical [8]; [25]): 21000 ng·h/mL
Cmax, mean (clinical [8]; [25]): 2200 ng/mL
Tmax, median (clinical [8]; [25]): 10 h
Accumulation ratio based on AUC (clinical [8]; repeated doses of 3.3 g GIAZO every 12 hours, steady-state vs single dose): 3.6
Median time of peak plasma concentration (Tmax) (clinical [8]; single dose 3.3 g GIAZO, 18 healthy subjects): 12 h
AUC0-∞, mean (clinical [8]; [26]): 33500 ng·h/mL
AUCtau, mean (clinical [8]; [26]): 5900 ng·h/mL
Cmax, mean (clinical [8]; [26]): 1200 ng/mL
Tmax, median (clinical [8]; [26]): 12 h
T1/2, mean (clinical [8]; single dose 3.3 g as GIAZO, N = 17 where marked b): 10.4^b hour
Mean % of dose excreted in urine over 12 hours (clinical [8]; steady-state, 3.3 g GIAZO every 12 hours, healthy volunteers): 15.6%
Percent of the oral dose measured in the blood / systemically absorbed ([7]; oral dose): ~12%
Binding to plasma proteins (human plasma proteins [13]): 78%
Inhibition of CYP1A2 (CYP1A2 [14]): not shown to inhibit
Inhibition of CYP2C9 (CYP2C9 [15]): not shown to inhibit
Inhibition of CYP2C19 (CYP2C19 [16]): not shown to inhibit
Inhibition of CYP2D6 (CYP2D6 [17]): not shown to inhibit
Inhibition of CYP3A4/5 (CYP3A4/5 [18]): not shown to inhibit
Median Tmax ([12]; fasted): 12 h
Change (reduction) of AUC0-∞ under fed conditions [12]: 17%
Reduction of mean Cmax under fed conditions [12]: 48%
Median Tmax ([12]; with a high fat meal): 24 h

Continued, in another order:

Inhibition of CYP1A2 (CYP1A2 [2]): not shown to inhibit
Inhibition of CYP2C9 (CYP2C9 [3]): not shown to inhibit
Inhibition of CYP2C19 (CYP2C19 [4]): not shown to inhibit
Inhibition of CYP2D6 (CYP2D6 [5]): not shown to inhibit
Inhibition of CYP3A4/5 (CYP3A4/5 [6]): not shown to inhibit
Structure (SMILES): Nc1ccc(C(=O)NCCC(=O)O)cc1 [4-ABA, 4-aminobenzoyl-β-alanine]
Genotoxicity, Ames test (Ames test): not genotoxic
Genotoxicity, human lymphocyte chromosomal aberration test (human lymphocyte): positive
Genotoxicity, mouse lymphoma cell (L5178Y/TK+/−) forward mutation test [1]: not genotoxic
Absorption of the released carrier component ([7]; largely eliminated in the feces): poorly absorbed

Solubility in acid ([19]; acid): insoluble
Solubility in all other organic solvents ([19]; all other organic solvents): practically insoluble
Solubility in methanol and ethanol ([19]; methanol and ethanol): sparingly soluble
pH at which soluble ([19]; pH): at least 4.5
Water solubility ([19]; water): highly water-soluble
Solubility in water and isotonic saline ([19]; water and isotonic saline): freely soluble
Structure (SMILES): O=C(O)CCNC(=O)c1ccc(/N=N/c2ccc(O)c(C(=O)O)c2)cc1 [balsalazide disodium, (E)-5-[[-4-[[(2-carboxyethyl)amino]carbonyl]phenyl]azo]-2-hydroxybenzoic acid, disodium salt, dihydrate]
Effect on fertility and reproductive performance [20]: no effect on fertility and reproductive performance
Impaired fertility or harm to the fetus [20]: no evidence of impaired fertility or harm to the fetus
Impaired fertility or harm to the fetus [21]: no evidence of impaired fertility or harm to the fetus
Tumorigenicity [22]: not tumorigenic
Genotoxicity, Ames test (Ames test): not genotoxic
Genotoxicity, human lymphocyte chromosomal aberration test (human lymphocyte): not genotoxic
Genotoxicity, mouse lymphoma cell (L5178Y/TK+/−) forward mutation test [1]: not genotoxic
Genotoxicity, mouse micronucleus test (Mouse micronucleus test): not genotoxic
Genotoxicity, Chinese hamster lung cell (CH V79/HGPRT) forward mutation test [23]: genotoxic

AUC(0-inf) (clinical [8]; human, in vivo): 1400 ng·h/mL
T1/2, mean (clinical [8]; human, in vivo): 1.9 h
Tmax (clinical [8]; human, in vivo): 0.5 h
AUC (clinical [8]; human, in vivo, AUCtau, mean): 1300 ng·h/mL
Cmax (clinical [8]; human, in vivo, Cmax, mean): 300 ng/mL
half-life (clinical [8]; [24]): 1.9 h
Inhibition of CYP1A2 (CYP1A2 [2]): not shown to inhibit
Inhibition of CYP2C9 (CYP2C9 [3]): not shown to inhibit
Inhibition of CYP2C19 (CYP2C19 [4]): not shown to inhibit
Inhibition of CYP2D6 (CYP2D6 [5]): not shown to inhibit
Inhibition of CYP3A4/5 (CYP3A4/5 [6]): not shown to inhibit
Binding to plasma proteins (human plasma proteins [13]): ≥ 99%
Change (reduction) of AUC0-∞ under fed conditions [12]: No significant changes
Reduction of mean Cmax under fed conditions [12]: 44%
Tmax ([12]; fasted): 0.5 h
Tmax ([12]; with a high fat meal): 2 h
Structure (SMILES): O=C(O)CCNC(=O)c1ccc(/N=N/c2ccc(O)c(C(=O)O)c2)cc1 [balsalazide]
